Experimental data reported in patent US6670381B2, “Benzamide derivatives as thrombin inhibitors” (SmithKline Beecham Corporation, priority 1998, dated 2003).

Key:
[1] = molecular target: human α-thrombin (Homo sapiens, UniProt P00734); assay: Thrombin inhibitory activity, chromogenic assay; assay type: biochemical; settings: substrate N-p-tosyl-gly-pro-lys p-nitroanilide 100 μM, thrombin 1 nM, pH 7.4, room temperature
Description: All dilutions were made in a buffer consisting of: 50 mM HEPES, 150 mM NaCl, 5 mM CaCl2, 0.1% PEG and at pH 7.4. Briefly, the substrate (final conc. of 100 μM) was added to thrombin (final conc. of 1 nM) and the reaction monitored for 10 mins at 405 nm using a Biotek EL340 plate reader; the assay was performed at room temperature. To obtain IC50s the data were analyzed using Kineticalc™ and processed using ActivityBase™ to obtain the IC50 value.

[2] = system: human plasma; assay: APTT (activated partial thromboplastin time), clotting time of human plasma in vitro; assay type: biochemical; settings: pooled citrated human plasma; for APTT: concentration of compound to extend the normal APTT by 1.5×: 1.5× extension of clotting time; for APTT: degree of extension (ratio of clotting times in presence or absence of compound): at 100 nM compound
Description: Pooled citrated (0.38% trisodium citrate w/v) plasma was prepared from blood taken from healthy volunteers and stored at −70° C. The APTT tests were performed using a Thrombtrack 4 from Nycomed. Actin reagent (a reconstituted extract from dehydrated rabbit brain, also containing ellagic acid) was obtained from Baxter Healthcare Corporation USA. Briefly, citrated plasma was added to either compound or distilled water followed by addition of actin reagent. These were then mixed for 2 min at 37° C. before adding calcium chloride to initiate clotting. Compounds extended the normal clotting time, which is in the range 30-35 seconds, to varying degrees depending on their concentrations. The degrees of extension of the APTT was calculated by the ratio of clotting times in presence or absence of compound. The concentration of a compound to extend the ‘normal’ APTT by 1.5× was used as a criterion for comparing the anti-coagulant activities of compounds.

Compound	IC50 [1]	APTT: concentration of compound to extend the normal APTT by 1.5× [2]	APTT: degree of extension (ratio of clotting times in presence or absence of compound) [2]
CCC(COc1cc(Cl)cc(C(=O)N(C(C)C)C(C)C)c1)Nc1ccncc1.Cl (stereo not shown) [Example 11, 3-Chloro-N,N-diisopropyl-5-[2-(pyridin-4-ylamino)-butoxy]-benzamide hydrochloride]	26 nM	650 (1.5×) nM	
CCCN(CC)C(=O)c1cc(C)cc(OC[C@H](C)Nc2ccncc2)c1 [Example 6, N-Ethyl-3-methyl-N-propyl-5-[2S-(pyridin-4-ylamino)-propoxy]-benzamide]	1.5 nM	120 (1.5×) nM	
CCCN(C)C(=O)c1cc(C)cc(OC[C@H](C)Nc2ccncc2)c1 [Example 4, 3,N-Dimethyl-N-propyl-5-[2S-(pyridin-4-ylamino)-propoxy]-benzamide]	5 nM	97 (1.5×) nM	
CCCCN(CCC)C(=O)c1cc(C)cc(OC[C@H](C)Nc2ccncc2)c1 [Example 7, N-Butyl-3-methyl-N-propyl-5-[2S-(pyridin-4-ylamino)-propoxy]-benzamide]	< 1 nM		100 (1.31×)
CCCN(CCC)C(=O)c1cc(C)cc(OC[C@H](C)Nc2ccncc2)c1 [Example 5, 3-Methyl-N,N-dipropyl-5-[2S-(pyridin-4-ylamino)-propoxy]-benzamide]	< 1 nM	110 (1.5×) nM	
CCN(C(=O)c1cc(C)cc(OC[C@H](C)Nc2ccncc2)c1)C(C)C [Example 1, N-Ethyl-N-isopropyl-3-methyl-5-[2S-(pyridin-4-ylamino)-propoxy]-benzamide]	< 1 nM	40 (1.5×) nM	
CCCN(C(=O)c1cc(Cl)cc(OC[C@H](C)Nc2ccncc2)c1)C(C)C [Example 10, 3-Chloro-N-isopropyl-N-propyl-5-[2S-(pyridin-4-ylamino)-propoxy]-benzamide]	3.4 nM		100 (1.28×)
Cc1cc(OC[C@H](C)Nc2ccncc2)cc(C(=O)N(C(C)C)C2CCCCC2)c1 [Example 8, N-Cyclohexyl-N-isopropyl-3-methyl-5-[2S-(pyridin-4-ylamino)-propoxy]-benzamide]	< 1 nM		100 (1.32×)
Cc1cc(OC[C@H](C)Nc2ccncc2)cc(C(=O)N(C(C)C)C(C)C)c1 [Example 2, N,N-Diisopropyl-3-methyl-5-[2S-(pyridin-4-ylamino)-propoxy]-benzamide]	< 1 nM	80 (1.5×) nM	
CCCN(C(=O)c1cc(C)cc(OC[C@H](C)Nc2ccncc2)c1)C(C)C [Example 9, N-Isopropyl-3-methyl-N-propyl-5-[2S-(pyridin-4-ylamino)-propoxy]-benzamide]	< 1 nM	60 (1.5×) nM	
Cc1cc(OC[C@H](C)Nc2ccncc2)cc(C(=O)N(C)C(C)C)c1 [Example 3, N-Isopropyl-3,N-dimethyl-5-[2S-(pyridin-4-ylamino)-propoxy]-benzamide]	3 nM	90 (1.5×) nM	
